Molecules are shown by their SMILES.

The assay addresses T1, EIF2AK2 (PKR) (Homo sapiens, UniProt P19525).
T1 construct: purchased Thermo Fisher Scientific (Life Technologies) SelectScreen
Description: SelectScreen LanthaScreen. The assay is classed as binding. The note with it: 1 µM. An outline of the steps: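 Percent values come from Thermo SelectScreen profiling of NU5455, combining activity and binding assays. CSF1R was run in Z'LYTE format at Km app ATP, and CAMK1 in Adapta format with ATP listed at 10.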
Background: TR-FRET usually uses a lanthanide donor and a delayed reading to cut background.

T1 sequence (P19525 whole entry): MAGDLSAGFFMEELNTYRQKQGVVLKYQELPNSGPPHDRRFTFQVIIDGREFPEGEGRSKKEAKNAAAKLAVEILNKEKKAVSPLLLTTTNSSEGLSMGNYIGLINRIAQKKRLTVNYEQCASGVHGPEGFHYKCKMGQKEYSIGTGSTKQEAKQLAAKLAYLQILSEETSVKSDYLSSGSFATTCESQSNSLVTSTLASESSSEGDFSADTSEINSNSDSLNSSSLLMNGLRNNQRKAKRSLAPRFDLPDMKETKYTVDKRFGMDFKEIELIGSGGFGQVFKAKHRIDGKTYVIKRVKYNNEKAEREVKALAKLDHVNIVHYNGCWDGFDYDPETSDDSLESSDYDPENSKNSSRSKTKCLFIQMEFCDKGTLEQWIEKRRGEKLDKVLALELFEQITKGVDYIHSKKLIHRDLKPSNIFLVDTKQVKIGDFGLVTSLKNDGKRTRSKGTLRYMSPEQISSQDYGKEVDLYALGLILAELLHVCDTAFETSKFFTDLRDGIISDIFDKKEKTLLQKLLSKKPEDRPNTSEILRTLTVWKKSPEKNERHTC

Regarding `CN(C(=O)CN1CCOCC1)c1ccc2sc3c(-c4cccc5c(=O)cc(N6CC7CCC(C6)O7)oc45)cccc3c2c1` [NU5455], the “% displacement” value was found to be 13.3%.

The record behind these values is publication PMC6934184, “Selective DNA-PKcs inhibition extends the therapeutic index of localized radiotherapy and chemotherapy” (The Journal of Clinical Investigation, 2019).
